These results are taken from PMC3510433, “Adamantyl carboxamides and acetamides as potent human 11β-hydroxysteroid dehydrogenase type 1 inhibitors” (Bioorganic & Medicinal Chemistry, 2012).

In one series the target is T1, human 11β-HSD1 (Homo sapiens, UniProt P28845).
T1 construct: expressed in transfected cells; host or cells: HEK-293 (human), stably transfected
Nature of the series: 11β-HSD1 inhibition, human HEK-293 cell based assay (SPA). Particulars: for 11β-HSD1 inhibitory activity (in words): at 1 μM where stated; for inhibition at 1 µM: HEK293, read-out: Percentage of inhibition measured at 1 μM. Here is the method: 11β-HSD1 inhibition was measured in intact human HEK-293 cells to reveal the true inhibitory activity. Differences in observed effects for different compounds may reflect combinatorial factors including the ability to penetrate the cell membrane, the stability within the cell and the binding ability to the enzyme.
The cell-based assays were conducted on the human HEK-293 cell line stably transfected with the HSD11B1 gene.[28] 11β-HSD1 activity was determined by measuring the amount of tritiated product formed using a scintillation proximity assay (SPA).
Cells were incubated in 96-well micro-plates in the presence of tritiated cortisone substrate and the assay plates contained internal high and low controls to allow calculation of percentage inhibition. Each well of a 96-well culture plate was seeded with human 11β-HSD1 overexpressed HEK293 cells in 100 μL medium. When the cells were 80% confluent, the medium was removed from each well then 100 μL of fresh, serum-free, medium containing ^3H-cortisone (22 nM) and test compound in 1% DMSO was added. The control wells were also dispensed. […] The plate was incubated at 37 °C for 2 h, after which 50 μL of medium was removed from each well and transferred to a microplate containing 100 μL of a pre-incubated mixture of anti-cortisol antibody and SPA bead. The mixture was incubated with gentle shaking until equilibrium was reached, before transferring to a scintillation counter to establish the enzyme activity in each sample.
The compounds were initially tested at a concentration of 1 μM. Those compounds showing over 70% inhibition of 11β-HSD1 at 1 μM were subjected to an IC50 measurement. A Merck compound 544 was used as the reference compound in the assay (IC50 = 50 ± 20 nM).[19] The IC50 values are reported as the mean value of 3 measurements with variance less than 20%. IC50 values were calculated from the dose-response curve using Microsoft Excel add-in XLfit with a Four Parameter Logistic nonlinear regression model.

Setting [1] is: HEK-293 cells stably transfected with HSD11B1, mean of 3 measurements.
[2] abbreviates: 1 μM, HEK-293 cells transfected with HSD11B1.

Marks after values point to notes of the source that are not given here.

T1 sequence (P28845 whole entry): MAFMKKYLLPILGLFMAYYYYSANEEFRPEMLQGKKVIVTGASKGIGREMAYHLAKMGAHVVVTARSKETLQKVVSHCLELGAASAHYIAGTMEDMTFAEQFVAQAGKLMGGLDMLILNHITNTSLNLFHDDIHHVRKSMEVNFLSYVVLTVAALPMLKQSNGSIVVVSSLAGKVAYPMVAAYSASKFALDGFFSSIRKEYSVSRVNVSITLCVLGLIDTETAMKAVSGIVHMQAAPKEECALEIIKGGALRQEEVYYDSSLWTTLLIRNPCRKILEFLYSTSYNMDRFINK

One may read the IC50 as the concentration that inhibits the measured activity by half. A higher IC50 goes with weaker potency in that assay. With `O=C(NCc1cccs1)C12CC3CC(CC(C3)C1)C2` [Compound 5], at human 11β-HSD1 (setting [1]), inhibition was half-maximal at 403 nM (IC50).

For orientation: melting point means the temperature of the solid-liquid transition. Take `Cc1ccsc1CN(C)C(=O)C12CC3CC(CC(C3)C1)C2` [Compound 6, N-Methyl-N-((3-methylthiophen-2-yl)methyl)adamantane-1-carboxamide]: the melting point lay in the range of 72 to 73.5 °C. The compound also showed an IC50 against human 11β-HSD1 (setting [1]) of 275 nM. Moreover, the “11β-HSD1 inhibitory activity (in words)” value at human 11β-HSD1 is “retains nearly the same activity as parent compound 3”.

A word on the inhibition: it is the share of the control response that was lost under treatment. `CN(Cc1sccc1N)C(=O)C12CC3CC(CC(C3)C1)C2` [Compound 7, N-((3-Aminothiophen-2-yl)methyl)-N-methyladamantane-1-carboxamide] came in with a melting point of 117 to 119 °C. In addition, at human 11β-HSD1 (setting [2]), the inhibition at 1 µM came to 12%. The “11β-HSD1 inhibitory activity (in words)” value at human 11β-HSD1 is “sharp decrease of activity”.

As to `Cc1csc(CN(C)C(=O)C23CC4CC(CC(C4)C2)C3)c1` [Compound 8, N-Methyl-N-((4-methylthiophen-2-yl)-methyl)adamantane-1-carboxamide], the melting point lay within 87 to 88 °C. At human 11β-HSD1 (setting [2]), the inhibition at 1 µM turned out to be 55%. Also, on human 11β-HSD1, the “11β-HSD1 inhibitory activity (in words)” value was “weak inhibition”.

Compound `Cc1csc(CNC(=O)C23CC4CC(CC(C4)C2)C3)c1` [Compound 9, N-((4-Methylthiophen-2-yl)methyl)-adamantane-1-carboxamide] returned a melting point of 127 to 128.5 °C. Besides, the inhibition at 1 µM on human 11β-HSD1 (setting [2]) came out at 8%.

`Cc1ccc(CN(C)C(=O)C23CC4CC(CC(C4)C2)C3)s1` [Compound 10, N-Methyl-N-((5-methylthiophen-2-yl)-methyl)adamantane-1-carboxamide] yielded a melting point of 83 to 85.5 °C. On human 11β-HSD1 (setting [2]), the inhibition at 1 µM came out at 32%. In addition, the “11β-HSD1 inhibitory activity (in words)” value on human 11β-HSD1 was “weak inhibition”.

Compound `CN(Cc1ccc(Cl)s1)C(=O)C12CC3CC(CC(C3)C1)C2` [Compound 11, N-((5-Chlorothiophen-2-yl)methyl)-N-methyladamantane-1-carboxamide] came in with a melting point of 92 to 94 °C. For the same compound, the inhibition at 1 µM at human 11β-HSD1 (setting [2]) is 29%. Moreover, the “11β-HSD1 inhibitory activity (in words)” value on human 11β-HSD1 is “weak inhibition”.

`CN(Cc1ccsc1)C(=O)C12CC3CC(CC(C3)C1)C2` [Compound 12] yielded an IC50 on human 11β-HSD1 (setting [1]) of 125 nM.

At human 11β-HSD1 (setting [1]), `CN(Cc1ccco1)C(=O)C12CC3CC(CC(C3)C1)C2` [Compound 13] returned an IC50 of 249 nM.

As to `O=C(NCc1ccco1)C12CC3CC(CC(C3)C1)C2` [Compound 14, N-(Furan-2-ylmethyl)adamantane-1-carboxamide], the melting point lay in the range of 69 to 72 °C. Further, the inhibition at 1 µM at human 11β-HSD1 (setting [2]) is 68%.

The compound `Cn1cccc1CNC(=O)C12CC3CC(CC(C3)C1)C2` [Compound 16, N-((1-Methyl-1H-pyrrol-2-yl)meth-yl)-adamantane-1-carboxamide] registered a melting point of 117 to 119 °C. In addition, on human 11β-HSD1 (setting [1]), the IC50 was found to be 1700 nM.

For `CN(Cc1nccn1C)C(=O)C12CC3CC(CC(C3)C1)C2` [Compound 17, N-Methyl-N-((1-methyl-1H-imidazol-2-yl)methyl)adamantane-1-carboxamide], the melting point was in the range of 175 to 176 °C. Further, the inhibition at 1 µM on human 11β-HSD1 (setting [2]) amounted to 24%.

`CN(Cc1ccnn1C)C(=O)C12CC3CC(CC(C3)C1)C2` [Compound 18, N-Methyl-N-((1-methyl-1H-pyrazol-5-yl)-methyl)adamantane-1-carboxamide] registered a melting point of 102 to 103.5 °C. Further, the inhibition at 1 µM on human 11β-HSD1 (setting [2]) came to 34%.

Turning to `Cc1csc(CN(C)C(=O)C23CC4CC(CC(C4)C2)C3)n1` [Compound 19, N-Methyl-N-((4-methylthiazol-2-yl)-methyl)adamantane-1-carboxamide], the inhibition at 1 µM at human 11β-HSD1 (setting [2]) turned out to be 31%.

In turn, `CN(Cc1cccc(N)c1)C(=O)C12CC3CC(CC(C3)C1)C2` [Compound 20, N-(3-Aminobenzyl)-N-methyladam-antane-1-carboxamide] returned a melting point of 105 to 106.5 °C. This compound also came in with an IC50 at human 11β-HSD1 (setting [1]) of 118 nM.

`CC(=O)Nc1cccc(CN(C)C(=O)C23CC4CC(CC(C4)C2)C3)c1` [Compound 21, N-(3-Acetamidobenzyl)-N-methyl-adamantane-1-carboxamide] gave a melting point of 109 to 111 °C. Also, the inhibition at 1 µM at human 11β-HSD1 (setting [2]) stood at 22%.

In turn, `CN(Cc1cccnc1)C(=O)C12CC3CC(CC(C3)C1)C2` [Compound 24, N-Methyl-N-(pyridin-3-ylmethyl)-adamantane-1-carboxamide] came in with a melting point of 57 to 59.5 °C. The inhibition at 1 µM at human 11β-HSD1 (setting [2]) was 57%.

On human 11β-HSD1 (setting [1]), `O=C(NCc1cccnc1)C12CC3CC(CC(C3)C1)C2` [Compound 25, N-(Pyridin-3-ylmethyl)adamantane-1-carboxamide] displayed an IC50 of 676 nM.

Regarding `O=C(NCc1ccccn1)C12CC3CC(CC(C3)C1)C2` [Compound 26, N-(Pyridin-2-ylmethyl)adamantane-1-carboxamide], the melting point lay in the range of 91 to 93.5 °C. In addition, the inhibition at 1 µM on human 11β-HSD1 (setting [2]) came to 45%.

Take `Cc1cccc(CN(C)C(=O)C23CC4CC(CC(C4)C2)C3)n1` [Compound 27, N-Methyl-N-((6-methylpyridin-2-yl)-methyl)adamantane-1-carboxamide]: the melting point lay within 76 to 77.5 °C. In addition, the inhibition at 1 µM on human 11β-HSD1 (setting [2]) was 48%.

At human 11β-HSD1 (setting [1]), `CN(CCc1cccs1)C(=O)C12CC3CC(CC(C3)C1)C2` [Compound 28] registered an IC50 of 448 nM.

With `O=C(NCCc1cccs1)C12CC3CC(CC(C3)C1)C2` [Compound 29], the IC50 at human 11β-HSD1 (setting [1]) came out at 679 nM.

The compound `CN(CCc1ccccn1)C(=O)C12CC3CC(CC(C3)C1)C2` [Compound 30, N-Methyl-N-(2-(pyridin-2-yl)ethyl)-adamantane-1-carboxamide] displayed a melting point of 64 to 65 °C. Moreover, it took 165 nM to reach half-maximal inhibition against human 11β-HSD1 (setting [1]) (IC50).

Compound `O=C(NCCc1ccccn1)C12CC3CC(CC(C3)C1)C2` [Compound 31, N-(2-(Pyridin-2-yl)ethyl)adamant-ane-1-carboxamide] came in with a melting point of 76 to 79 °C. On human 11β-HSD1 (setting [1]), this compound showed an IC50 of 379 nM.

Turning to `O=C(NCCc1cccnc1)C12CC3CC(CC(C3)C1)C2` [Compound 32, N-(2-(Pyridin-3-yl)ethyl)adamant-ane-1-carboxamide], the melting point fell in the range of 83 to 85 °C. Also, the inhibition at 1 µM on human 11β-HSD1 (setting [2]) was determined as 1%.

In the case of `O=C(CC12CC3CC(CC(C3)C1)C2)NCc1cccs1` [Compound 33, 2-(Adamantan-1-yl)-N-(thiophen-2-ylmeth-yl)acetamide], the melting point was in the range of 117 to 119 °C. Besides, at human 11β-HSD1 (setting [2]), the inhibition at 1 µM was found to be 66%.

Take `CN(Cc1ccsc1)C(=O)CC12CC3CC(CC(C3)C1)C2` [Compound 34, 2-(Adamantan-1-yl)-N-methyl-N-(thio-phen-3-ylmethyl)acetamide]: the melting point fell in the range of 117 to 119 °C. On human 11β-HSD1 (setting [1]), this compound yielded an IC50 of 349 nM. Also, the “fold reduction in potency compared to 12” value at human 11β-HSD1 (acetamide vs carboxamide 12) is “greater than 2 fold”.

`CN(Cc1cccn1C)C(=O)CC12CC3CC(CC(C3)C1)C2` [Compound 35, 2-(Adamantan-1-yl)-N-methyl-N-[(1-methyl-1H-pyrrol-2-yl)methyl]acetamide] displayed a melting point of 75 to 76.5 °C. For the same compound, the IC50 at human 11β-HSD1 (setting [1]) was 655 nM. Also, the “fold loss of inhibitory activity compared with 15” value at human 11β-HSD1 (acetamide vs carboxamide 15) was ~6 fold.

`Cn1cccc1CNC(=O)CC12CC3CC(CC(C3)C1)C2` [Compound 36, 2-(Adamantan-1-yl)-N-[(1-methyl-1H-pyrrol-2-yl)methyl]acetamide] returned a melting point of 92 to 95 °C. In addition, 2880 nM corresponded to half-maximal inhibition against human 11β-HSD1 (setting [1]) (IC50).

`CN(Cc1cccnc1)C(=O)CC12CC3CC(CC(C3)C1)C2` [Compound 37, 2-(Adamantan-1-yl)-N-methyl-N-(pyridin-3-ylmethyl)acetamide] showed a melting point of 67 to 68.5 °C. Also, the inhibition at 1 µM on human 11β-HSD1 (setting [2]) was 67%.

Take `O=C(CC12CC3CC(CC(C3)C1)C2)NCc1ccccn1` [Compound 38, 2-(Adamantan-1-yl)-N-(pyridin-2-yl-methyl)acetamide]: the “Percentage of inhibition measured at 1 μM” value on human 11β-HSD1 (setting [2]) is 26% ^a.

In the case of `CN(Cc1cccs1)C(=O)C1(C)CCCCC1` [Compound 40, N,1-Dimethyl-N-(thiophen-2-ylmethyl)cyclohexanecarboxamide], on human 11β-HSD1 (setting [1]), the concentration for half-maximal inhibition (IC50) was determined as 3600 nM.

Consider `CN(Cc1cccs1)C(=O)C1(c2ccc(Cl)cc2)CC1` [Compound 42, 1-(4-Chlorophenyl)-N-methyl-N-(thio-phen-2-ylmethyl) cyclopropanecarbox-amide], for which the half-inhibitory concentration (IC50) against human 11β-HSD1 (HEK-293 cells) is ~1600 nM; at human 11β-HSD1 (setting [1]), 1550 nM. Further, the “fold loss of activity in comparison with 41” value on human 11β-HSD1 (vs compound 41) is listed as ~5.5 fold.

Compound `CN(Cc1cccs1)C(=O)C1(c2ccc(Cl)cc2)CCC1` [Compound 43, 1-(4-Chlorophenyl)-N-methyl-N-(thio-phen-2-ylmethyl)cyclobutanecarbox-amide] came in with an IC50 against human 11β-HSD1 (setting [1]) of 385 nM.

For `C1CCc2nnc(C34CC5CC(CC(C5)C3)C4)n2CC1` [Merck compound 544, reference compound], the half-inhibitory concentration (IC50) on human 11β-HSD1 (setting [1]) was 50 ± 20 nM.
